Measured values reported in patent US20040071656A1, “Modulation of heat-shock-protein-based immunotherapies” (priority 2001, published 2004).
No end group written: not given here. *: point of attachment. FITC = O=C1OC2(c3ccc(O)cc3Oc3cc(O)ccc32)c2ccc(NC(=S)*)cc21

Assays:
human CD40 [1] = biological target: T1, human CD40 (Homo sapiens, UniProt P25942); experiment: Uptake of peptide C-FITC in HEK293T-CD40 cells, confocal microscopy; format: cell-based; details: 0.5 μM protein, 5 μM peptide C-FITC, ADP, 30 min 0° C. then 15 min 37° C.
T1 construct: CD40 full-length cDNA was cloned by PCR; expressed in transfected cells
T1 sequence (P25942 21-277): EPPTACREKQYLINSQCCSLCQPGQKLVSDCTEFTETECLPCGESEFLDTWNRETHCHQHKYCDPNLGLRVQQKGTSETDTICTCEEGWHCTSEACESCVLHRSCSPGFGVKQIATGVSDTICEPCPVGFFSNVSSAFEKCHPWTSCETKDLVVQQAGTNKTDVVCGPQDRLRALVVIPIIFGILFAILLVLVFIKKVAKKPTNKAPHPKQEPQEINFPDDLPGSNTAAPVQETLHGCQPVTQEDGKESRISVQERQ
Protocol: For experiments to study uptake of Hsp70/peptide C-FITC complex, HEK293T-CD40 and HEK293T-MCAT cells were seeded on collagen-coated cover slips 24 h prior to the experiment. For complex formation Hsp70, its N-terminal domain (N70) or its C-terminal domain (C70) were preincubated with a 10-fold molar excess of peptide C-FITC for 30 min at 37° C., as described above for the biotinylated proteins. HEK293T-CD40 and HEK293T-MCAT were incubated with 0.5 μM of Hsp70, N70 or C70, preincubated with 2 mM ADP and 5 μM peptide C-FITC, or 5 μM peptide C-FITC alone for 30 min on ice. Thereafter the cells were washed three times with medium, incubated for 15 min at 37° C., and fixed, embedded in Fluoromount-G and analyzed by confocal microscopy (LSM 510, Zeiss).
Next, the binding of Hsp70-peptide complex to CD40 was studied, which results in the uptake of peptide. To this end, HEK293T-CD40 cells and HE293T-MCAT cells (not expressing CD40) were incubated with a fluorescent (FITC) derivative of peptide C for 30 min at 0° C. in the presence of ADP, with or without Hsp70 or its two domains. After removal of excess material, the cells were incubated at 37° C. for 15 min, fixed and then analyzed by fluorescence microscopy. […] (FIG. 6B, panel 1). […] Neither did HEK293T-MCAT control cells give rise to a signal under any of the conditions tested (not shown). We conclude that the specific interaction of CD40 with Hsp70-peptide complex mediates the uptake of peptide.
Details for FIG. 6. Binding of Hsp70 complex to CD40-expressing HEK293T cells induces signaling via p38 and causes peptide uptake. A. HEK293T-cells, stably transfected with cDNA encoding human CD40 or the unrelated membrane protein murine cationic amino acid transporter (MCAT) were incubated for 20 min at 37° C. with CD40L or with Hsp70, C70, N70, bacterial DnaK either in the presence of ADP or AMPPNP, or buffer alone. Thereafter cells were washed, solubilized in SDS-sample buffer, and analyzed by immunoblotting with antibodies directed against phosphorylated (active) p38. Blots were also developed with an antibody against tubulin in order to control for equal loading. B. Cells were incubated at 0° C. for 30 min with recombinant human Hsp70, N70, or C70, all in the presence FITC-labeled peptide, or with the FITC-labeled peptide alone. Thereafter cells were washed, incubated for 15 min at 37° C., and processed for fluorescence microscopy. Upper left panel: Hsp70, upper right panel: FITC-labeled peptide alone, lower left panel: C70, lower right panel: N70. Only cells stably transfected with CD40 are shown. Cell boundaries are emphasized with broken lines.

[2] = biological target: T2, exoplasmic domain of human CD40 (GST-CD40) (Homo sapiens, UniProt P25942); experiment: GST-CD40 binding and competition assay with recombinant Hsp70 and its domains
T2 construct: The cDNA for the exoplasmic domain of CD40 (amino acids 20-212); made in house; host or cells: E. coli, pGEX-2T
T2 sequence (P25942 20-212): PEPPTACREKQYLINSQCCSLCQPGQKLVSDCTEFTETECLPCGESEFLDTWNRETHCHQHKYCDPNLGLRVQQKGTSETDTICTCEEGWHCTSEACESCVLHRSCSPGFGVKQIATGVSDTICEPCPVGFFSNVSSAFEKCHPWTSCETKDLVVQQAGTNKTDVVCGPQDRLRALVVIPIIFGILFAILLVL
Protocol: For binding assays with recombinant Hsp70 and its domains, 3 μM His6-Hsp70 or its His6-tagged domains were incubated with 2 mM ATP, 2 mM ADP or 2 mM ADP and 28 μM peptide C in 50 μl binding buffer (10 mM MOPS/KOH, pH 7.2, 150 mM KCl and 3 mM MgCl2) for 30 min at 37° C. In competition experiments binding was probed with either a 10-fold excess of Hsp70, the two domains, or DnaK, or with a 5-fold excess of Hip or Bag 1 for 10 min at 0° C. To this end, Hsp70, N70, C70 and DnaK were preincubated with ADP, ATP and peptide C as described above. For comparison of CD40 binding of Hsp70 and its N-terminal domain, Hsp70 was preincubated in the presence or absence (mock treatment) of a 30-fold molar excess of peptide C. 3 μM of GST or GST-CD40 was added to the samples and incubated for 20 min at 16° C. For titration of peptide C, 5- to 50-fold excess of peptide C (15-150 μM) was added to the preincubation of Hsp70. Thereafter the samples were combined with 20 μl of 1% BSA-treated Glutathione Sepharose 4 Fast Flow and incubated in the presence of 2 mM DTT for another 20 min at 16° C. Unbound proteins were removed by washing the beads three times with 1 ml PBS, and immobilized proteins eluted with 30 μl elution buffer for 20 min at 22° C. 10 μl of the eluates were subjected to SDS-PAGE and analyzed by immunoblotting using a Penta-His-antibody (Quiagen). Blot signals were quantified by Quantity One (Biorad).
Details for FIG. 3. Binding of Hsp70 to CD40 is direct and depends on ADP. A. Hela-cell lysates were incubated with GST (control), or GST-CD40 in the amounts indicated. Thereafter samples were affinity purified on glutathione-Sepharose as outlined in Experimental Procedures, subjected to SDS-PAGE and analyzed by immunoblotting with antibodies directed against Hsc70 and Hsp70 (upper lanes), and against Hsp90 (lower lanes). B. Human recombinant His6-tagged Hsp70 was incubated with ATP, ADP, or an excess of peptide C, followed by addition of GST-CD40 or GST alone. After affinity purification samples were analyzed by immunoblotting as described in A, using antibodies directed against the His6-tag. C. Recombinant human His6-tagged Hsp70 was incubated with peptide C, either in the presence or absence of ADP. The reactions were then incubated with ANA1-cell lysates as described in Experimental Procedures. Protein bound to Hsp70 was analyzed by affinity purification on Ni-NTA-agarose and immunoblotting with antibodies directed against CD40.
Details for FIG. 4. Hsp70 binding to CD40 is mediated by the N-terminal ATPase domain and is competed by Hip. A. Human His6-tagged Hsp70, its N- or C-terminal domains, or recombinant bacterial DnaK was incubated either with GST-CD40, or with GST. B. Recombinant DnaK was incubated with ATP, ADP, or an excess of peptide C, followed by addition of GST-CD40 or GST alone. C. His6-tagged N-terminal domain of Hsp70 (N70) was incubated in the presence of ATP or ADP, followed by incubation with a 10-fold molar excess of Hsp70 in the presence of ADP or ATP. D: Recombinant human His6-tagged Hsp70 protein was incubated with a 5-fold molar excess of either recombinant Hip protein or Bag-1, and with GST-CD40 or GST as a control. Bound protein was analyzed after affinity purification on glutathione-Sepharose by immunoblotting with an antibody directed against the N-terminal His6-tags or with an antibody directed against DnaK.
Details for FIG. 5. Peptide substrate stimulates Hsp70 binding to CD40. A. His6-tagged Hsp70 was incubated with increasing concentrations of peptide C as indicated in the Figure, and binding to GST-CD40 analyzed by immunoblotting with antibodies directed against the His6-tag. The lower panel is a quantitation of the data. B. Equivalent concentrations (3 μM) of His6-tagged Hsp70 (in the presence of a 30-fold molar excess of peptide C) or His6-tagged N70 was incubated with GST-CD40, and bound protein was analyzed as described above.

human CD40 [3] = biological target: T1, human CD40; experiment: Binding to Cos-7 cells transiently transfected with human CD40 cDNA, fluorescence microscopy; format: cell-based; details: 250 nM biotinylated protein, 30 min at 0° C.
Protocol: Cell culture and fluorescence microscopy. The murine macrophage cell line ANA1 was kindly provided by H. Wagner (Munich, Germany). ANA-1 cells were cultured in VLE-RPMI 1640 (Biochrom), supplemented with 10% FCS, 2 mM L-glutamine and antibiotics. For fluorescence microscopy, ANA1 cells were either stimulated with LPS (20 μg/ml, Sigma, Germany), or kept in an LPS-free medium (mock treatment) for 7 h. After stimulation, cells were harvested and incubated with 100 nM biotinylated Hsp70, biotinylated GST, or Hsp70/peptide C-biotin complex for 30 min at 0° C. in VLE-RPMI 1640. After incubation cells were processed for staining with streptavidin-TRITC (Sigma, Germany), fixed with paraformaldehyde and analyzed by fluorescence microscopy (Axiovert 35, Zeiss) as described (Sondermann et al., 2000). […] Twenty-four h post-transfection cells were incubated with 250 nM biotinylated Hsp70, biotinylated GST or Hsp70/peptide C-biotin complex for 30 min at 0° C. in DMEM, fixed, stained with streptavidin-TRITC (Sigma, Germany), and analyzed by fluorescence microscopy as described (Sondermann et al., 2000, idem). […] Stably transfected cell lines were analyzed by immunoblotting for CD40 expression using an anti-CD40 antibody (CSA180, Stressgen). […]
Mock-treated and LPS-stimulated ANA-1 cells were analyzed for their expression of CD40. […]

Hsp70 = details: Greene et al., 1995; read-out: affinity of peptide C for Hsp70; cited from earlier work
[4] = biological target: T2, exoplasmic domain of human CD40 (GST-CD40); experiment: GST-CD40 pull-down of endogenous heat shock proteins from Hela cell lysate; format: binding; details: 80 or 400 pmol GST-CD40, immunoblot
Protocol: Binding assays with GST-CD40. For binding of endogenous Hsp70 and Hsc70 from Hela cell lysate, Hela cells were lysed as described above and centrifuged at 100,000 g at 4° C. for 1 h. 20 μl bed volume of Glutathione Sepharose 4 Fast Flow (Amersham Pharmacia) per sample were preincubated with 80 pmol or 400 pmol of GST or GST-CD40 fusion protein in 50 μl binding buffer. Unbound protein was removed by washing three times with PBS. The beads were treated with 1% BSA/PBS to avoid non-specific binding, and than incubated with 150 μl of Hela cell lysate in the presence of 2 mM DTT for 20 min at 16° C. […] 10 μl of the eluates was subjected to SDS-PAGE and analyzed by immunoblotting using an anti-Hsc/Hsp70 antibody and an anti-Hsp90: antibody (SPA822 and SPA835, Stressgen). […]
Details for FIG. 3. […] Thereafter samples were affinity purified on glutathione-Sepharose as outlined in Experimental Procedures, subjected to SDS-PAGE and analyzed by immunoblotting with antibodies directed against Hsc70 and Hsp70 (upper lanes), and against Hsp90 (lower lanes). […] After affinity purification samples were analyzed by immunoblotting as described in A, using antibodies directed against the His6-tag. […] Protein bound to Hsp70 was analyzed by affinity purification on Ni-NTA-agarose and immunoblotting with antibodies directed against CD40.

With “FITC-GCEVFGLGWRSYKH ({FITC}-GCEVFGLGWRSYKH) [reference compound]” the “uptake of fluorescent (FITC) peptide C into HEK293T-CD40 cells” value (human CD40 [1]) was “No staining above background”.
For “C70: Recombinant C-terminal peptide-binding domain of human Hsp70, residues 382-641”, the “competition for the binding of full-length Hsp70 to CD40” value ([2]; ADP, 5-fold molar excess of competitor) was “neither the C-terminal Hsp70 domain (C70) nor DnaK had a significant effect on binding” and the “uptake of fluorescent (FITC) peptide C into HEK293T-CD40 cells” value (human CD40 [1]) was “did not result in a peptide signal above background”.
In the case of “GCEVFGLGWRSYKH [peptide C, reference compound]”, the “binding to CD40-transfected Cos-7 cells” value (human CD40 [3]) is reported as “no binding above background”, the “effect of peptide C on binding of Hsp70-ADP to CD40” value ([2]; 5- to 50-fold excess of peptide C (15-150 μM), ADP) is reported as “increased dramatically” and the “effect of peptide C on binding of DnaK to CD40” value ([2]; 10-fold molar excess of peptide C) is reported as “almost completely abolishes the binding of DnaK to CD40”. For the same substance, the “competition of peptide C with the Hsp70-CD40 interaction” value ([2]; molar excess of peptide C over Hsp70, ADP) was “did not compete with the interaction”, the “ka of the saturable effect of peptide on Hsp70-ADP binding to CD40” value ([2]; titration of peptide C, 3 μM Hsp70, ADP) was about 30 µM and the Kd (Hsp70) was 5 to 10 µM.
With “Hsc70: Endogenous mammalian Hsp70 family member in Hela-cell lysates” the “binding to GST-CD40 from Hela-cell lysates” value [4] was “bound to GST-CD40 in a concentration dependent manner”.
